Measured values published in patent US7572786B2, “Substituted 1-piperidin-3-yl-4-piperidin-4-yl-piperazine derivatives and their use as neurokinin antagonists” (Janssen Pharmaceutica, N.V., priority 2002, dated 2009).

How the values were obtained:
NK1 = NK1 (Homo sapiens, UniProt P25103); experiment: Signal transduction (ST), intracellular Ca++ (FLIPR), NK1 antagonism; assay type: cell-based; conditions: for IC50: read-out: pIC50 NK1 (converted)
Description: (§1) This test evaluates in vitro functional NK1 antagonistic activity. For the measurements of intracellular Ca^++ concentrations the cells were grown on 96-well (black wall/transparent bottom) plates from Costar for 2 days until they reached confluence. The cells were loaded with 2 μM Fluo3 in DMEM containing 0.1% BSA and 2.5 mM probenecid for 1 h at 37° C. […] The cells were preincubated with a concentration range of antagonists for 20 min at RT and Ca^++-signals after addition of the agonists were measured in a Fluorescence Image Plate Reader (FLIPR from Molecular Devices, Crawley, England). The peak of the Ca^++-transient was considered as the relevant signal and the mean values of corresponding wells were analysed as described below.
(§2) The sigmoidal dose response curves were analysed by computerised curve-fitting, using the GraphPad Program. […] For antagonist responses the IC50-value was calculated using non-linear regression.

NK3 = molecular target: T1, NK3 (Homo sapiens, UniProt P29371); experiment: Signal transduction (ST), intracellular Ca++ (FLIPR), NK3; assay type: cell-based; conditions: read-out: pIC50 NK3 (converted)
T1 sequence (P29371 1-465): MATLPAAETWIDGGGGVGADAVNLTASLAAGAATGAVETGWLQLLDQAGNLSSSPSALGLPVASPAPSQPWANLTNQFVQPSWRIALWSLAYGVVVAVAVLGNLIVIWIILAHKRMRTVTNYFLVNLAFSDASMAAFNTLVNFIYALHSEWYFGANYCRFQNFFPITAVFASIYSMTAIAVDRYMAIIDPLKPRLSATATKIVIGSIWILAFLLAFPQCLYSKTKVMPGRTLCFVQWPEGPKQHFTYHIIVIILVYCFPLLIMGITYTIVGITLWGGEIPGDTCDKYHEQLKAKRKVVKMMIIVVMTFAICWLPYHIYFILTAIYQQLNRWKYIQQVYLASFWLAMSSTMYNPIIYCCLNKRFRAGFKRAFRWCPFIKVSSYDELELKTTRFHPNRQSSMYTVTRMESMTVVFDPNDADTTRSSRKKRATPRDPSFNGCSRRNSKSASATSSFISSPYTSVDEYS
Description: [The source words this procedure for another target and reports this target under the same test.] as §1, §2

Sequence of NK1 (P25103 whole entry): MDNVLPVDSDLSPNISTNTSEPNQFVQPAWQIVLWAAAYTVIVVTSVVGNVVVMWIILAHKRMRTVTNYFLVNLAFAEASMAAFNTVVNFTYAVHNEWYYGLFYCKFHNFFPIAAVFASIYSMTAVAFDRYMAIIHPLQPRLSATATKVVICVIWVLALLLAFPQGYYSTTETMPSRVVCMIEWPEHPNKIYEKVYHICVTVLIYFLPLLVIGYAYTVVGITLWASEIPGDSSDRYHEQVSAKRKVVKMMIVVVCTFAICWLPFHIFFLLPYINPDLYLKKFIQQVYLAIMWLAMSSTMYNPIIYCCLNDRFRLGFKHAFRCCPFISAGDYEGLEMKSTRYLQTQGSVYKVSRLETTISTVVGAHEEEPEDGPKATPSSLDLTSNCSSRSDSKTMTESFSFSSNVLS

Structure (SMILES)	IC50 (NK1) [nM]	IC50 (NK3) [nM]	pIC50 NK1 (NK1)
O=C(c1cc(C(F)(F)F)cc(C(F)(F)F)c1)N1CC[C@H](N2CCN(C3CCCN(S(=O)(=O)c4ccc(O)c(F)c4)C3)CC2)C[C@H]1Cc1ccccc1 (some centres unmarked) [Compound 107]	15.8	1260	
O=C(c1cc(C(F)(F)F)cc(C(F)(F)F)c1)N1CCC(N2CCN(C3CCCN(Cc4ccccc4)C3)CC2)CC1Cc1ccccc1 (centres unmarked) [Compound 1]	50.1		
O=C(c1ccccc1)N1CCCC(N2CCN([C@H]3CCN(C(=O)c4cc(C(F)(F)F)cc(C(F)(F)F)c4)[C@H](Cc4ccccc4)C3)CC2)C1 (some centres unmarked) [Compound 8]	20	251	
O=C(C1CCOC1)N1CCCC(N2CCCN(C3CCN(C(=O)c4cc(C(F)(F)F)cc(C(F)(F)F)c4)C(Cc4ccccc4)C3)CC2)C1 (single isomer, unassigned) [Compound 121]	126	7940	
O=C(c1cc(C(F)(F)F)cc(C(F)(F)F)c1)N1CC[C@@H](N2CCCN(C3CCCN(Cc4ccccc4)C3)CC2)C[C@H]1Cc1ccccc1 (some centres unmarked) [Compound 110]	200		
CC1(C(=O)N2CCCC(N3CCN([C@H]4CCN(C(=O)c5cc(C(F)(F)F)cc(C(F)(F)F)c5)[C@H](Cc5ccccc5)C4)CC3)C2)CC1 (some centres unmarked) [Compound 14]	12.6	2000	
O=C(c1ccoc1)N1CCCC(N2CCCN(C3CCN(C(=O)c4cc(C(F)(F)F)cc(C(F)(F)F)c4)C(Cc4ccccc4)C3)CC2)C1 (single isomer, unassigned) [Compound 116]	50.1	3980	
O=C(C1CCOC1)N1CCCC(N2CCCN(C3CCN(C(=O)c4cc(C(F)(F)F)cc(C(F)(F)F)c4)C(Cc4ccccc4)C3)CC2)C1 (single isomer, unassigned) [Compound 115]	39.8	6310	
O=C(c1ccccc1Cl)N1CCCC(N2CCCN([C@@H]3CCN(C(=O)c4cc(C(F)(F)F)cc(C(F)(F)F)c4)[C@H](Cc4ccccc4)C3)CC2)C1 (some centres unmarked) [Compound 119]	126		
Cc1cc(C)cc(C(=O)N2CCCC(N3CCN(C4CCN(C(=O)c5cc(C(F)(F)F)cc(C(F)(F)F)c5)C(Cc5ccccc5)C4)CC3)C2)c1 (centres unmarked) [Compound 3]	79.4	2000	
O=C(c1cc(F)ccc1F)N1CCCC(N2CCN([C@H]3CCN(C(=O)c4cc(C(F)(F)F)cc(C(F)(F)F)c4)[C@H](Cc4ccccc4)C3)CC2)C1 (some centres unmarked) [Compound 12]	25.1	3160	
O=C(c1cc(C(F)(F)F)cc(C(F)(F)F)c1)N1CC[C@H](N2CCCN(C3CCCN(Cc4ccccc4)C3)CC2)C[C@H]1Cc1ccccc1 (some centres unmarked) [Compound 111]	251	7940	
Cc1c(S(=O)(=O)N2CCCC(N3CCN([C@H]4CCN(C(=O)c5cc(C(F)(F)F)cc(C(F)(F)F)c5)[C@H](Cc5ccccc5)C4)CC3)C2)cnn1-c1ccccc1 (some centres unmarked) [Compound 44]	63.1	5010	
O=C(c1ccoc1)N1CCCC(N2CCCN(C3CCN(C(=O)c4cc(C(F)(F)F)cc(C(F)(F)F)c4)C(Cc4ccccc4)C3)CC2)C1 (single isomer, unassigned) [Compound 112]	158		
O=C(c1cc(C(F)(F)F)cc(C(F)(F)F)c1)N1CCC(N2CCN(C3CCCNC3)CC2)CC1Cc1ccccc1 (centres unmarked) [Compound 2]	20		
O=C(c1cc(C(F)(F)F)cc(C(F)(F)F)c1)N1CCC(N2CCN(C3CCCNC3)CC2)CC1Cc1ccccc1 (single isomer, unassigned) [Compound 109]			7.3
O=C(c1cc(C(F)(F)F)cc(C(F)(F)F)c1)N1CCC(N2CCN(C3CCCNC3)CC2)CC1Cc1ccccc1 (centres unmarked) [Compound 108]	79.4		
Cc1cc(C)cc(C(=O)N2CCCC(N3CCN([C@@H]4CCN(C(=O)c5cc(C(F)(F)F)cc(C(F)(F)F)c5)[C@H](Cc5ccccc5)C4)CC3)C2)c1.O=C(O)/C=C/C(=O)O.O=C(O)/C=C/C(=O)O (some centres unmarked) [Compound 13]			6.3
O=C(c1cc(C(F)(F)F)cc(C(F)(F)F)c1)N1CC[C@H](N2CCCN(C3CCCN(S(=O)(=O)c4cccs4)C3)CC2)C[C@H]1Cc1ccccc1 (some centres unmarked) [Compound 122]	100		
